What all share (assay type): biochemical
One assay concerns the target T1, MMP2 (Homo sapiens, UniProt P08253).
T1 construct: purchased Enzo Life Sciences, Inc. BML-AK408
Put plainly: MMP-2 colorimetric inhibition assay (Enzo kit). The note with it: colorimetric thiopeptide substrate, absorbance 415 nm; read-out: MMP2 IC50 class. The protocol:
(§1) The inhibitory activities of the compounds of the invention were assessed in 96-well microplate format using MMP1, MMP2, MMP9 and MMP13 colorimetric assay kits and TACE fluorometric assay kit from Enzo Life Sciences, Inc. The inhibitory effect of the compounds of the invention on ADAM10 activity were evaluated in 96-well microplate format using fluorometric assay from AnaSpec, Inc.
The MMP-2 Colorimetric Drug Discovery Kit (catalog #BML-AK408) is a complete assay system designed to screen MMP-2 inhibitors using a thiopeptide as a chromogenic substrate (Ac-PLG-[2-mercapto-4-methylpentanoyl]-LG-OC2H5). The MMP cleavage site peptide bond is replaced by a thioester bond in the thiopeptide. Hydrolysis of this bond by an MMP produces a sulfhydryl group, which reacts with DTNB [5,5′-dithiobis(2-nitrobenzoic acid), Ellman's reagent] to form 2-nitro-5-thiobenzoic acid, that can be detected spectrophotometrically.
(§2) The inhibitory activities of the compounds of the invention against MMP1, MMP2, MMP9 and MMP13 were tested according to the manufacturer's assay protocols and the absorbance at 415 nm was monitored using the Tecan Infinite® 200 Pro F Nano^+ microplate reader.
(§3) The normalized values were analyzed using GraphPadPrism 9 for Windows (GraphPad Software, San Diego, CA, USA) software by plotting inhibition curves and determining the IC50 values.
(§4) The calculated IC50 values were divided into the following classes: • A: <50 nM; B: 50-1000 nM; C: >1000-10,000 nM; D: >10,000 nM

The next assay deals with T2, MMP9 (Homo sapiens, UniProt P14780).
T2 construct: purchased Enzo Life Sciences, Inc. BML-AK410
T2 sequence (P14780 94-707): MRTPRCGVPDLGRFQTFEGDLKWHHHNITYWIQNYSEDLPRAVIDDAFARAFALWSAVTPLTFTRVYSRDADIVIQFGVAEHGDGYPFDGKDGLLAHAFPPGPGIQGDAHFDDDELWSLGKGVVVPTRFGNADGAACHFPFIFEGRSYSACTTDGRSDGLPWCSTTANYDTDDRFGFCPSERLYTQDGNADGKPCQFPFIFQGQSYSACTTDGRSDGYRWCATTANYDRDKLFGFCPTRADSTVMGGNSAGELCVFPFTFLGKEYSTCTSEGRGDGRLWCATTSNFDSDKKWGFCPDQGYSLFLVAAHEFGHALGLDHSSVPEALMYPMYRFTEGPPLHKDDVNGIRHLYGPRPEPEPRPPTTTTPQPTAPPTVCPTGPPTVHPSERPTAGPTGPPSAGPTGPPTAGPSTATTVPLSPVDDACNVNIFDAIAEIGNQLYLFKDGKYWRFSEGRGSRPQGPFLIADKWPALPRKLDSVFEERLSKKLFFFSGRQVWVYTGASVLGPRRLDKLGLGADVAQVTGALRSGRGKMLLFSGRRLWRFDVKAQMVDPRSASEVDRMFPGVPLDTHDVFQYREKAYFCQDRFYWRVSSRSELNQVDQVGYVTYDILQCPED
Put plainly: MMP-9 colorimetric inhibition assay (Enzo kit). The note with it: colorimetric thiopeptide substrate, absorbance 415 nm; read-out: MMP9 IC50 class. On the procedure: as §1
The MMP-9 Colorimetric Drug Discovery Kit (catalog #BML-AK410) is a complete assay system designed to screen inhibitors of matrix metalloproteinase-9 using a thiopeptide as a chromogenic substrate (Ac-PLG-[2-mercapto-4-methylpentanoyl]-LG-OC2H5). The MMP cleavage site peptide bond is replaced by a thioester bond in the thiopeptide. Hydrolysis of this bond by an MMP produces a sulfhydryl group, which reacts with DTNB [5,5′-dithiobis(2-nitrobenzoic acid), Ellman's reagent] to form 2-nitro-5-thiobenzoic acid, that can be detected spectrophotometrically.
as §2, §3, §4

The next assay concerns the target T3, MMP1 (Homo sapiens, UniProt P03956).
T3 construct: purchased Enzo Life Sciences, Inc. BML-AK404
T3 sequence (P03956 100-469): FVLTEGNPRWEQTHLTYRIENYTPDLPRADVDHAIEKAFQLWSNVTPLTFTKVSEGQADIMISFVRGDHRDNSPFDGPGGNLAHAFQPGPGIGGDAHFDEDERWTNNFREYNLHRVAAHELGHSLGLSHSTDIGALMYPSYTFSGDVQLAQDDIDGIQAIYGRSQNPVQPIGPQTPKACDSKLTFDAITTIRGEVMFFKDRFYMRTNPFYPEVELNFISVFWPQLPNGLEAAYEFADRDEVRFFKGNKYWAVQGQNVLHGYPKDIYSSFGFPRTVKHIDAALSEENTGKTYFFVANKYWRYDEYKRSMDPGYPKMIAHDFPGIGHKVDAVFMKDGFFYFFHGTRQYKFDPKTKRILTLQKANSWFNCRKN
Put plainly: MMP-1 colorimetric inhibition assay (Enzo kit). The following applies: colorimetric thiopeptide substrate, absorbance 415 nm; read-out: MMP1 IC50 class. On the procedure:
as §1
The MMP-1 Colorimetric Drug Discovery Kit (catalog #BML-AK404) is a complete assay system designed to screen inhibitors of matrix metalloproteinase-1 using a thiopeptide as a chromogenic substrate (Ac-PLG-[2-mercapto-4-methylpentanoyl]-LG-OC2H5). The MMP cleavage site peptide bond is replaced by a thioester bond in the thiopeptide. Hydrolysis of this bond by an MMP produces a sulfhydryl group, which reacts with DTNB [5,5′-dithiobis(2-nitrobenzoic acid), Ellman's reagent] to form 2-nitro-5-thiobenzoic acid, that can be detected spectrophotometrically.
as §2, §3, §4

The target of another assay is T4, TACE (ADAM17) (Homo sapiens, UniProt P78536).
T4 construct: purchased Enzo Life Sciences, Inc. BML-AK310
T4 sequence (P78536 223-474 limits assumed): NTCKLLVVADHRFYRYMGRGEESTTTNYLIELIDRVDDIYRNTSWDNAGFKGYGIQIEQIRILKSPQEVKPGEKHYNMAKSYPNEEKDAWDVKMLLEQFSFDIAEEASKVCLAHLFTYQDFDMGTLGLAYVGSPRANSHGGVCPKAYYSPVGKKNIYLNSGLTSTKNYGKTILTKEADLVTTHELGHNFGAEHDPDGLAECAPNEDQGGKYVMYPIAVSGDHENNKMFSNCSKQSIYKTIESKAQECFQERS
In words: TACE fluorometric inhibition assay (Enzo kit). The following applies: quenched fluorogenic peptide, ex/em 320 nm/420 nm; read-out: TACE IC50 class. On the procedure:
as §1
The TACE Fluorometric Drug Discovery Kit (catalog #BML-AK310) is a complete assay system designed to screen ADAM17 (TACE) inhibitors using a quenched fluorogenic peptide: Mca-PLAQAV-Dpa-RSSSR-NH2. Mca fluorescence is quenched by the Dpa group until cleavage by proteases separates the two moieties leading to an increase in Mca fluorescence.
The inhibitory activity of the compounds of the invention against TACE was tested according to the manufacturer's assay protocol and the fluorescence was monitored at excitation/emission wavelengths=320 nm/420 nm using Tecan Infinite® 200 Pro F Nano^+ microplate reader.
as §3, §4

A further assay concerns the target T5, MMP13 (Homo sapiens, UniProt P45452).
T5 construct: purchased Enzo Life Sciences, Inc. BML-AK412
Put plainly: MMP-13 colorimetric inhibition assay (Enzo kit). The note with it: colorimetric thiopeptide substrate, absorbance 415 nm; read-out: MMP13 IC50 class. On the procedure:
as §1
The MMP-13 Colorimetric Drug Discovery Kit (catalog #BML-AK412) is a complete assay system designed to screen inhibitors of matrix metalloproteinase-13 using a thiopeptide as a chromogenic substrate (Ac-PLG-[2-mercapto-4-methylpentanoyl]-LG-OC2H5). The MMP cleavage site peptide bond is replaced by a thioester bond in the thiopeptide. Hydrolysis of this bond by an MMP produces a sulfhydryl group, which reacts with DTNB [5,5′-dithiobis(2-nitrobenzoic acid), Ellman's reagent] to form 2-nitro-5-thiobenzoic acid, that can be detected spectrophotometrically.
as §2, §3, §4

T1 sequence (P08253 110-452 limits assumed): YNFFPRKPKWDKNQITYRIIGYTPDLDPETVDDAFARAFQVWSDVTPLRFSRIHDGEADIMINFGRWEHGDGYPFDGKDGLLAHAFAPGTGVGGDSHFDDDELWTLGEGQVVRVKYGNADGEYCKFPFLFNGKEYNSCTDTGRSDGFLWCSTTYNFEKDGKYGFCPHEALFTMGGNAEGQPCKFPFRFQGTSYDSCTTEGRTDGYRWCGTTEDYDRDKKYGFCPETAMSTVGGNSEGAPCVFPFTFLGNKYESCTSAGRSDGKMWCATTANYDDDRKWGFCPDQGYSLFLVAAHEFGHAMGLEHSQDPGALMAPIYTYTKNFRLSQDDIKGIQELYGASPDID

As for `COCCOC(=O)N1CC2CCC(C(=O)NO)(C1)N2S(=O)(=O)N1CCN(Cc2ccc(F)cc2)CC1` (centres unmarked) [Example 22, 2-methoxyethyl 8-((4-(4-fluorobenzyl)piperazin-1-yl)sulfonyl)-1-(hydroxycarbamoyl)-3,8-diazabicyclo[3.2.1]octane-3-carboxylate], the IC50 is 1 to 10 µM at MMP2; 1 to 10 µM at MMP9; > 10 µM at MMP1; > 10 µM at TACE (ADAM17); 1 to 10 µM at MMP13.

Usually IC50 stands for the concentration at which inhibition is half-maximal.

Source of the values: US20250026761A1, “DIAZABICYCLOOCTANE DERIVATIVES USEFUL AS MATRIX METALLOPROTEINASE INHIBITORS” (VASA THERAPEUTICS SPÓLKA Z OGRANICZONA ODPOWIEDZIALNOSCIA, priority 2021, published 2025).
